Calls of active or inactive are those of the source. Cut-off read from the data, not from the text of the source, for most assays here: actives have a measured IC50 and inactives only a lower limit.
Tests used:
Streptococcus = assay: Group A Streptococcus viability loss, dose response, counter-screen for streptokinase expression inhibitor project, luminescence, BacTiterGlo (AID 1915); assay type: functional, organism-based;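 note: potency for reduction of bacterial viability or growth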
[1] = molecular target: T1, Sentrin-specific protease 8 (Homo sapiens, UniProt Q96LD8); assay type: functional;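 note: luminescence read-out of SENP8 inhibition, dose-response confirmation following an ultra-high-throughput screen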
T1 sequence (Q96LD8 whole entry): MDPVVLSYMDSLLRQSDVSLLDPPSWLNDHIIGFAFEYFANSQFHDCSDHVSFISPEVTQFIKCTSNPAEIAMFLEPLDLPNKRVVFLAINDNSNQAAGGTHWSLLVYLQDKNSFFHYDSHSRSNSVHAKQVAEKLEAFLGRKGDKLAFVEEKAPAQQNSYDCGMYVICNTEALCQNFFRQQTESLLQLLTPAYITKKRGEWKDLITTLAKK

[2] = molecular target: T2, Sentrin-specific protease 7 (Homo sapiens, UniProt Q9BQF6); assay type: functional;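 note: Luminescence-based dose-response confirmation of ultra-high-throughput screening hits, measuring inhibition of SENP7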
T2 sequence (Q9BQF6 whole entry): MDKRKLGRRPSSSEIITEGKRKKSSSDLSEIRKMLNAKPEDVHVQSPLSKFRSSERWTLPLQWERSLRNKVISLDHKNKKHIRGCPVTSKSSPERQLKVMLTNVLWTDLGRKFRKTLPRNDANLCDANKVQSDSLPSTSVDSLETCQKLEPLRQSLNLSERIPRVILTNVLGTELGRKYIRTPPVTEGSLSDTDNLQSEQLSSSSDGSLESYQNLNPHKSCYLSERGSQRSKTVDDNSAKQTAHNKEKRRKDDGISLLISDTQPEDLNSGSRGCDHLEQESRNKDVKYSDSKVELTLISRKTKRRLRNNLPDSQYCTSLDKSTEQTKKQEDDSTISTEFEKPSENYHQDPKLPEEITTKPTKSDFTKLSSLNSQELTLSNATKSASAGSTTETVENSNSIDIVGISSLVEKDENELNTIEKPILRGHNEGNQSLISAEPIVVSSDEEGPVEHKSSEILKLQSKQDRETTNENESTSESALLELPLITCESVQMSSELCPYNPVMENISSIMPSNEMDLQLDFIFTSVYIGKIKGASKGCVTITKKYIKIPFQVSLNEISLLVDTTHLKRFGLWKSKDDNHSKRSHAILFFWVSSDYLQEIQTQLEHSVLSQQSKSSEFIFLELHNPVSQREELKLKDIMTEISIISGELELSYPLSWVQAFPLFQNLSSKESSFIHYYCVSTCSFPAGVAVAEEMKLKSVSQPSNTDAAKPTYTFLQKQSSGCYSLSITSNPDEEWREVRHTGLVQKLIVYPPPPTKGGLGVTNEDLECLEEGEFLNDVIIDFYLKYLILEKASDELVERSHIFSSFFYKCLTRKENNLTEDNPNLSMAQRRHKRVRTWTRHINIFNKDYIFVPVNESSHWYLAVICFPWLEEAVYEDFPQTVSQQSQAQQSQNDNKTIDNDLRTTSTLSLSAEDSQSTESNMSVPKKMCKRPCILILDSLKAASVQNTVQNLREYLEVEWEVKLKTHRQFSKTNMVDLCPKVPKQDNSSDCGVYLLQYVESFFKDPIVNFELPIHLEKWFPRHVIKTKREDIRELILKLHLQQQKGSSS

[3] = molecular target: T3, Sentrin-specific protease 6 (Homo sapiens, UniProt Q9GZR1); assay type: functional;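 note: Luminescence-based dose-response confirmatory assay of SENP6 inhibition, following up an ultra-high-throughput screen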
T3 sequence (Q9GZR1 whole entry): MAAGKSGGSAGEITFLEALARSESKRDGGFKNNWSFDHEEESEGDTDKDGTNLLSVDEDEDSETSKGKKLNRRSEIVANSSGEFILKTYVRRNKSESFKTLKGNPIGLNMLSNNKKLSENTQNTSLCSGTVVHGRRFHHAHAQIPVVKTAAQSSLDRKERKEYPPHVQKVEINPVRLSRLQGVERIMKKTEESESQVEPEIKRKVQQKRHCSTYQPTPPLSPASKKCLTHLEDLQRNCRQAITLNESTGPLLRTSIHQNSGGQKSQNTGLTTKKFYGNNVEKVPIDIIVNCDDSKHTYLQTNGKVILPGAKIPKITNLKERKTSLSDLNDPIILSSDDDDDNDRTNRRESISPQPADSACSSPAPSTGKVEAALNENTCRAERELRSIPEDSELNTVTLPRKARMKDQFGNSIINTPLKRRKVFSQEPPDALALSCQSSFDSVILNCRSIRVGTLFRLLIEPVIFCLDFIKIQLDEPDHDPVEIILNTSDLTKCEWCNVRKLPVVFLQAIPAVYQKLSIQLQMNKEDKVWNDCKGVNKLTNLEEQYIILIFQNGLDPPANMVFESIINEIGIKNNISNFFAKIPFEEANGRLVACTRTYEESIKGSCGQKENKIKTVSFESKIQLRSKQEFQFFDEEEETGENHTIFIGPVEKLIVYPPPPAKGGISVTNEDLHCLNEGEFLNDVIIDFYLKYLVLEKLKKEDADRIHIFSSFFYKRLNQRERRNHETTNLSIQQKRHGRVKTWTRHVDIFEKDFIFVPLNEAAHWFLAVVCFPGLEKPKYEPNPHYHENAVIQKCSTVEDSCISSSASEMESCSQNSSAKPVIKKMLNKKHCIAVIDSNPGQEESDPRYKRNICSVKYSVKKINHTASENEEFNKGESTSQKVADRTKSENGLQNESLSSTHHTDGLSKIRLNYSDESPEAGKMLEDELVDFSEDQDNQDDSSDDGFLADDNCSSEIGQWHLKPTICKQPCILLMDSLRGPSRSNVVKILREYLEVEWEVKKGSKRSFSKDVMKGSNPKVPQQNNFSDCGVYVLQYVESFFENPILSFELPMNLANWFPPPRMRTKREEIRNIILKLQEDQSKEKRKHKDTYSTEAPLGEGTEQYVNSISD

Caspase-3 = molecular target: T4, Caspase-3 (Homo sapiens, UniProt P42574); assay type: functional;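 note: Dose-response selectivity test against caspase-3 for candidate inhibitors of sentrin-specific proteases (SENPs)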
T4 sequence (P42574 whole entry): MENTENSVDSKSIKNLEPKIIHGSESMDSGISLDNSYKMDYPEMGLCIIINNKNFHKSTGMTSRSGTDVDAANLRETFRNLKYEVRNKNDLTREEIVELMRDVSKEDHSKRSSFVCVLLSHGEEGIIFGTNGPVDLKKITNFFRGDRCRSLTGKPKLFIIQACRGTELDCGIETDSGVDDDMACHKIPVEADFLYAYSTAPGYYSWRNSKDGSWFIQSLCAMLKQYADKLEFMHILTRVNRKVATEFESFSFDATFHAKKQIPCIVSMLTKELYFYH

Row | Structure (SMILES) | EC50 (Streptococcus) | IC50 [1] | IC50 [2] | IC50 [3] | IC50 (Caspase-3)
1 | O=C(Cc1ccc([N+](=O)[O-])cc1)N/N=C/c1ccc([N+](=O)[O-])o1 | 21.7 µM (active) |  |  |  | 
2 | CCCCNc1cc(NC(C)=O)cc2cc(OC)c(OC)cc12 |  | 18.3 µM (active) | 19.9 µM (active) | 6.78 µM (active) | 20.7 µM (active)
3 | COc1ccc(C(NC(=O)C(C)C)c2ccc3cccnc3c2O)cc1 (stereo not given) | > 150 µM (not active) |  |  |  | 
4 | NS(=O)(=O)c1ccc(NC(=O)COC(=O)c2ccc([N+](=O)[O-])s2)cc1 |  | 4.33 µM (active) | 7.78 µM (active) | 4.59 µM (active) | 10.2 µM (active)
